Test results taken from patent US12564595B2, “Prophylactic and therapeutic pharmaceutical agent for HIV infectious diseases characterized by comprising combination of integrase inhibitor and anti-HIV agent” (Shionogi & Co., Ltd., priority 2019, dated 2026).

Assays:
[1] = tested on: HIV mutant strain 1 (E138K/G140S/Q148H/N155H); test: Test Example 2: resistance evaluation test (HeLa-CD4 reporter), mutant strain 1; type: cell-based; settings: FC=EC50 of mutant strain/EC50 of wild strain; HeLa-CD4 cells
Procedure: (§1) A serial dilution series of test samples in 96-well microplates was prepared (50 […]).
(§2) 2.5×10^4/mL of HeLa-CD4 cell suspension was dispensed into each of the microplates containing test sample, in the amount of 100 μL/well, and HIV virus liquid (wild strain and mutant strain) was then dispensed in an amount of 50 μL/well. Mixing was performed using a plate mixer and culturing was performed for three days in a CO2 incubator. After removing the cultured supernatant of each well by suction, 100 μL of the cell solution buffer in the reporter measurement kit was dispensed thereto, and freezing was conducted in a refrigerator (−80° C.). The plates frozen in the refrigerator were defrosted at room temperature, then mixed using a plate mixer and centrifuged for 5 min at 1,200 rpm. The supernatant of each well was divided to 96-well microplates (BLACK) in the amount of 20 μL in each case. The chemiluminescence reagent in the reporter assay kit was dispensed in the amount of 100 μL in each case, and, after reacting for about 1 h at room temperature, the amount of luminescence was measured using a MicroBeta TRILUX.
(§3) The degree of resistance (fold change (FC)) of each mutant strain was also calculated using the following formula. FC=EC50 of mutant strain/EC50 of wild strain (Results)
(§4) The results of the example compounds relating to formula (I) of (A) are shown below. The […] in respect of mutant strain 1 (E138K/G140S/Q148H/N155H) and the FC in respect of mutant strain 2 (E92Q/E138T/G140S/Q148H) are shown in the Table.

[2] = tested on: HIV mutant strain 2 (E92Q/E138T/G140S/Q148H); test: Test Example 2: resistance evaluation test (HeLa-CD4 reporter), mutant strain 2; type: cell-based; settings: FC=EC50 of mutant strain/EC50 of wild strain; HeLa-CD4 cells
Procedure: as §1, §2, §3, §4

[3] = Test Example 8: metabolic stability test; type: in vitro ADME, human
Procedure: The extent of metabolization of the compound according to the present invention in the liver was evaluated by reacting commercially available pooled human liver microsomes with the compound according to the present invention for a fixed time and calculating the remaining percentage by comparing the reaction sample with an unreacted sample.
The reaction (oxidative reaction) was conducted for 0 min or 30 min at 37° C. in the presence of 1 mmol/L of NADPH, in a 0.2 mL buffer solution containing 0.5 mg of human liver microsome protein/mL (50 mmol/L Tris-HCl pH 7.4, 150 mmol/L potassium chloride, 10 mmol/L magnesium chloride). After the reaction, 50 μL of reaction liquid were added to 100 μL of methanol/acetonitrile=1/1 (v/v) solution, mixed, and centrifuged for 15 minutes at 3000 rpm. The compound according to the present invention in the centrifuged supernatant was quantified using LC/MS/MS or solid phase extraction (SPE)/MS; the residual amount of the compound according to the present invention after the reaction was calculated, taking the amount of the compound at the 0 min reaction point as 100%.

[4] = pooled human liver microsomes, 30 min at 37° C., NADPH, compound concentration 0.5 μmol/L
[5] = human, microsomes, 0.5 h, 0.5 μmol/L, pH 7.4

SMILES | FC in respect of mutant strain 1 (E138K/G140S/Q148H/N155H) [1] | FC in respect of mutant strain 2 (E92Q/E138T/G140S/Q148H) [2] | Remaining percentage [3, 4] [%] | Remaining percentage [3, 5] [%]
CC(C)N1C(=O)c2c(O)c(=O)c(C(=O)NCc3c(F)cc(F)cc3F)cn2N2C[C@@H]3CC[C@@H](O3)[C@@H]12 [II-002] | 3.1 | 7.4 | 80.2 | 
CCN1C(=O)c2c(O)c(=O)c(C(=O)NCc3ccc(F)cc3)cn2N2CCCC[C@@H]12 [II-070] | 32 | 36 | 100 | 
CC(C)N1C(=O)c2c(O)c(=O)c(C(=O)NCc3ccccc3F)cn2N2C[C@@H]3CC[C@@H](O3)[C@@H]12 [II-009] | 5.6 | 6.4 | 87 | 
CCN1C(=O)c2c(O)c(=O)c(C(=O)NCc3c(F)cc(F)cc3F)cn2N2CCCC[C@@H]12 [Compound I-016] | 13 | 10 | 88 | 
CN1C(=O)c2c(O)c(=O)c(C(=O)NCc3cccc(F)c3F)cn2N2CCCC[C@@H]12 [II-091] | 48 | 17 | 96.9 | 
CN1C(=O)c2c(O)c(=O)c(C(=O)NCc3cccc(Cl)c3F)cn2N2CCOC[C@@H]12 [II-094] | 50 | 27 | 97.2 | 
CCN1C(=O)c2c(O)c(=O)c(C(=O)NCc3ccc(F)cc3F)cn2N2CCCC[C@@]12C [Compound I-024] | 24 | 16 | 92.5 | 
CCN1C(=O)c2c(O)c(=O)c(C(=O)NCc3c(F)cc(F)cc3F)cn2N2C[C@@H](C)C[C@@H]12 [II-043] | 18 | 17 | 83.2 | 
CC(C)N1C(=O)c2c(O)c(=O)c(C(=O)NCc3ccc(F)cc3F)cn2N2CCOC[C@@H]12 [II-021] | 8.1 | 14 | 87.5 | 
CCN1C(=O)c2c(O)c(=O)c(C(=O)NCc3ccc(F)cc3F)cn2N2C[C@@H]3CC[C@@H](O3)[C@@H]12 [II-088] | 47 | 45 | 101 | 
CN1C(=O)c2c(O)c(=O)c(C(=O)NCc3cccc(Cl)c3F)cn2N2[C@H]3COC[C@H]3C[C@@H]12 [II-132] | 76 | 17 |  | 101
CC(C)N1C(=O)c2c(O)c(=O)c(C(=O)NCc3c(F)cc(F)cc3F)cn2N2[C@H]3COC[C@H]3C[C@@H]12 [II-133] | 17 | 34 |  | 73.3
CCN1C(=O)c2c(O)c(=O)c(C(=O)NCc3ccc(F)cc3F)cn2N2[C@H](COC)CC[C@@H]12 [II-084] | 39 | 38 | 97.5 | 
CCN1C(=O)c2c(O)c(=O)c(C(=O)NCc3c(F)cc(F)cc3F)cn2N2C[C@@H]3CC[C@@H](O3)[C@@H]12 [II-041] | 17 | 28 | 88.4 | 
